In patent US20260176260A1, “DUAL RAF AND TUBULIN INHIBITORS AND METHODS OF USE THEREOF” (Deciphera Pharmaceuticals, LLC, priority 2023, published 2026):
Like-named read-outs stand apart in the source and are kept apart here.

Key:
Pa16c cells = test: Pa16c cell proliferation assay (resazurin); format: cell-based; conditions: Table 2, inhibition of cell proliferation
Protocol: Pa16c cells are obtained from Dr. Channing Der, University of North Carolina at Chapel Hill. Briefly, cells are grown in Dulbecco's Modified Eagle Medium supplemented with 10% characterized fetal bovine serum (Invitrogen, Carlsbad, CA) and 1% Penicillin/Streptomycin/L-Glutamine at 37° C., 5% CO2, and 95% humidity. Cells are expanded until reaching 70-95% confluency at which point they are sub-cultured or harvested for assay use. A serial dilution of test compound is dispensed into a 384-well black clear bottom plate in triplicate. 750 cells are added per well in 50 μL complete growth medium in the 384-well plate. Plates are incubated for 67 to 72 h at 37° C., 5% CO2, and 95% humidity. At the end of the incubation, 40 μL of a […] solution of resazurin (Sigma, St. Louis, MO) in PBS is added to each well of the plate and plates are incubated for an additional 18 to 24 h at 37° C., 5% CO2, and 95% humidity. Plates are read on a Synergy2 or equivalent reader (Biotek, Winooski, VT) using an excitation of 540 nm and an emission of 600 nm. Data is analyzed using Prism software (Graphpad, San Diego, CA) to calculate IC50 values.

HCT-116 cells = test: HCT-116 cell proliferation assay (resazurin); format: cell-based; conditions: Homo sapiens
Protocol: HCT-116 cells (catalog #CCL-247) are obtained from the American Type Culture Collect (ATCC, Manassas, VA). Briefly, cells are grown in McCoy's 5A supplemented with 10% characterized fetal bovine serum (Invitrogen, Carlsbad, CA) and 1% Penicillin/Streptomycin/L-Glutamine at 37° C., 5% CO2, and 95% humidity. Cells are expanded until reaching 70-95% confluency at which point they are sub-cultured or harvested for assay use. A serial dilution of test compound is dispensed into a 384-well black clear bottom plate in triplicate. 375 cells are added per well in 50 μL complete growth medium in the 384-well plate. Plates are incubated for 67 to 72 h at 37° C., 5% CO2, and 95% humidity. At the end of the incubation, 40 μL of a […] solution of resazurin (Sigma, St. Louis, MO) in PBS is added to each well of the plate and plates are incubated for an additional 4 to 5 h at 37° C., 5% CO2, and 95% humidity. Plates are read on a Synergy2 or equivalent reader (Biotek, Winooski, VT) using an excitation of 540 nm and an emission of 600 nm. Data is analyzed using Prism software (Graphpad, San Diego, CA) to calculate IC50 values.

B-Raf kinase = target: T1, B-Raf kinase (Homo sapiens, UniProt P15056); test: Biochemical assay for B-Raf (coupled pyruvate kinase/lactate dehydrogenase)
T1 construct: purchased Sigma

HPAF-II cells = test: HPAF-II cell proliferation assay (resazurin); format: cell-based; conditions: Homo sapiens
Protocol: HPAF-II cells (catalog #CRL-1997) are obtained from the American Type Culture Collect (ATCC, Manassas, VA). Briefly, cells are grown in Minimum Essential Media supplemented with 10% characterized fetal bovine serum (Invitrogen, Carlsbad, CA) and 1% Penicillin/Streptomycin/L-Glutamine at 37° C., 5% CO2, and 95% humidity. Cells are expanded until reaching 70-95% confluency at which point they are sub-cultured or harvested for assay use. A serial dilution of test compound is dispensed into a 384-well black clear bottom plate in triplicate. 750 cells are added per well in 50 μL complete growth medium in the 384-well plate. Plates are incubated for 115 to 120 h at 37° C., 5% CO2, and 95% humidity. At the end of the incubation, 40 μL of a […] solution of resazurin (Sigma, St. Louis, MO) in PBS is added to each well of the plate and plates are incubated for an additional 18 to 24 h at 37° C., 5% CO2, and 95% humidity. Plates are read on a Synergy2 or equivalent reader (Biotek, Winooski, VT) using an excitation of 540 nm and an emission of 600 nm. Data is analyzed using Prism software (Graphpad, San Diego, CA) to calculate IC50 values.

MiaPaca-2 cells = test: MiaPaca-2 cell proliferation assay (resazurin); format: cell-based; conditions: Homo sapiens, MIA PaCa-2; Table 2, inhibition of cell proliferation; read-out: MiaPaca-2
Protocol: MiaPaca-2 cells (catalog #CRL-1420) are obtained from the American Type Culture Collect (ATTC, Manassas, VA). Briefly, cells were grown in DMVEM supplemented with […] fetal bovine serum (Invitrogen, Carlsbad, CA), 2.5% New Zealand sourced horse serum and 1% Penicillin/Streptomycin/L-Glutamine at 37° C., […], and […]. Cells are expanded until reaching […] at which point they are sub-cultured or harvested for assay use. For assays completed in 96-well plates, a serial dilution of test compound is dispensed into a 96-well black clear bottom plate in triplicate. Three thousand cells are added per well in 200 μL complete growth medium in the 96-well plate. Plates are incubated for 67 to 72 h at 37° C., 5% CO2, and 95% humidity. At the end of the incubation, 40 μL of a […] solution of resazurin (Sigma, St. Louis, MO) in PBS is added to each well of the plate and plates are incubated for an additional 5 to 6 h at 37° C., 5% CO2, and 95% humidity. For 384-well assays, a threefold, 8-point serial dilution of compound was spotted column wise into a 384 well black, clear bottom, tissue culture treated plate using the Beckman Coulter Echo 650. Likewise, a threefold, 8-point serial dilution of cobimetinib was spotted row wise into the 384 well black, clear bottom plate containing compound. DMSO concentration was constant across all wells at 0.4%. Seven hundred fifty cells are added per well in 50 μL complete growth medium in each 384-well plate. Plates are incubated for 67 to 72 h at 37° C., 5% CO2, and 95% humidity. At the end of the incubation, 10 μL of a 440 μM solution of resazurin (Sigma, St. Louis, MO) in PBS is added to each well of the plate and plates are incubated for an additional 4 to 6 h at 37° C., 5% CO2, and 95% humidity. Plates are read on a Synergy2 or equivalent reader (Biotek, Winooski VT) using an excitation of 540 nm and an emission of 600 nm. Data is analyzed using Prism software (Graphpad, San Diego, CA) to calculate IC50 values.

C-Raf kinase = target: T2, C-Raf kinase (Homo sapiens, UniProt P04049, Y340D/Y341D); test: Biochemical assay for C-Raf (coupled pyruvate kinase/lactate dehydrogenase)
T2 construct: C-Raf residues 306-end; Y340D, Y341D with N-; purchased Sigma

[1] = Table 2, inhibition of cell proliferation, read-out: HCT-116
[2] = Table 1, inhibition of biochemical activity, read-out: BRAF
[3] = Table 2, inhibition of cell proliferation, read-out: HPAF-II
[4] = Table 1, inhibition of biochemical activity, read-out: CRAF

T1 sequence (P15056 416-766): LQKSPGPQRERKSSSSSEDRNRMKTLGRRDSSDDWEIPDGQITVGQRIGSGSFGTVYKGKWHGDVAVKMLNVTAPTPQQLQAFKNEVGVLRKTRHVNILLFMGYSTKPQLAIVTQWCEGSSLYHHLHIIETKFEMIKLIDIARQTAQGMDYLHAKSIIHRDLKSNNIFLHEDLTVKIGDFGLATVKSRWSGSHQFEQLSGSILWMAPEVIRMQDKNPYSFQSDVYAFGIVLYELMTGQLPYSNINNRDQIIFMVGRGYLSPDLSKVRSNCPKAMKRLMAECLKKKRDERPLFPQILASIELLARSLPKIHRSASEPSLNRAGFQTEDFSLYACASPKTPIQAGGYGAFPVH
T2 sequence (P04049 307-648 Y340D/Y341D): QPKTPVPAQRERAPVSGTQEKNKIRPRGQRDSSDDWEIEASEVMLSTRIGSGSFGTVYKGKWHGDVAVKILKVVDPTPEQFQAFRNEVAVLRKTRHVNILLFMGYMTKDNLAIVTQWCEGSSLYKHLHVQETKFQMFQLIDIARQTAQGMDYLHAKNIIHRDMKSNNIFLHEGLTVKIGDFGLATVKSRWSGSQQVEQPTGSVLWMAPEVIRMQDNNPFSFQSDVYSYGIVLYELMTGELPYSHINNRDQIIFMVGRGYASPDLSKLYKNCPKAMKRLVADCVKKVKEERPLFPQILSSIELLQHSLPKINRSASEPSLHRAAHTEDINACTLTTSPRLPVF

Structure (SMILES) | IC50 (Pa16c cells) [nM] | IC50 (HCT-116 cells; [1]) [nM] | IC50 (B-Raf kinase; [2]) [nM] | IC50 (HPAF-II cells; [3]) [nM] | IC50 (MiaPaca-2 cells) [nM] | IC50 (C-Raf kinase; [4]) [nM] | IC50 (HCT-116 cells; HCT-116, Table 4, read-out: HCT-116 IC50) [nM] | IC50 (B-Raf kinase; Table 4, read-out: BRAF IC50) [nM] | IC50 (HPAF-II cells; HPAF-II, Table 4, read-out: HPAF-II IC50) [nM] | IC50 (C-Raf kinase; Table 4, read-out: CRAF IC50) [nM]
CNC(=O)c1cc(-c2nc(N[C@H](C)CO)cc(-c3cc(NC(=O)c4cc(C(F)(F)F)cnn4)ccc3C)n2)ccn1 [Example 28] | 1000 to 10000 | 1000 to 10000 | < 100 | 1000 to 10000 | 1000 to 10000 | < 100 |  |  |  | 
CNC(=O)c1cc(-c2nc(NCCO)cc(-c3cc(NC(=O)c4cc(C(F)(F)F)cnn4)ccc3C)n2)ccn1 [Example 23] | 1000 to 10000 | 500 to 1000 | < 100 | 1000 to 10000 | 1000 to 10000 | < 100 |  |  |  | 
CNC(=O)c1cc(-c2cc(-c3cc(NC(=O)c4cc(C5CC5)cnn4)ccc3C)cc(OCCO)n2)ccn1 [Example 34] | 100 to 500 | 100 to 500 | < 100 | 500 to 1000 | 500 to 1000 | < 100 |  |  |  | 
Cc1cc(-c2cc(NC(=O)c3cc(C(F)(F)F)cnn3)ccc2C)cc(-c2ccnc(C(N)=O)c2)n1 [Example 7] | 100 to 500 | 100 to 500 | 100 to 500 | 100 to 500 | 100 to 500 | < 100 |  |  |  | 
CNC(=O)c1cc(-c2cc(-c3cc(NC(=O)c4cncc(C(C)(F)F)c4)ccc3C)ccn2)ccn1 [Example 14] |  | 500 to 1000 | < 100 | 1000 to 10000 | 1000 to 10000 | < 100 |  |  |  | 
CNC(=O)c1cc(-c2cc(-c3cc(NC(=O)c4cc(C(C)(F)F)cnn4)ccc3C)ccn2)ccn1 [Example 31] | 100 to 500 | 100 to 500 | < 100 | 100 to 500 | 100 to 500 | < 100 |  |  |  | 
CNC(=O)c1cc(-c2cc(-c3cc(NC(=O)c4cc(C(F)(F)F)cnn4)ccc3C)cc(NC)n2)ccn1 [Example 47] | < 100 | < 100 | < 100 | < 100 | < 100 | < 100 |  |  |  | 
CNC(=O)c1cc(-c2cc(-c3cc(NC(=O)c4cc(C#N)cnn4)ccc3C)cc(N[C@H](C)CO)n2)ccn1 [Example 50] |  | 100 to 500 | < 100 | 500 to 1000 | 100 to 500 | < 100 |  |  |  | 
CNC(=O)c1cc(-c2cc(-c3cc(NC(=O)c4ccc(C(F)(F)F)nc4)ccc3C)cc(N[C@H](C)CO)n2)ccn1 [Example 44] | 1000 to 10000 | 1000 to 10000 | 100 to 500 | 1000 to 10000 | 1000 to 10000 | 100 to 500 |  |  |  | 
CNC(=O)c1cc(-c2cc(-c3cc(NC(=O)c4cncc(C(C)(F)F)c4)ccc3C)cc(C)n2)ccn1 [Example 15] |  |  | 100 to 500 |  | 1000 to 10000 | < 100 |  |  |  | 
Cc1ccc(NC(=O)c2ccc(C(F)(F)F)nc2)cc1-c1cncc(-c2ccnc(C(N)=O)c2)c1 [Example 11] |  |  | 500 to 1000 |  | 1000 to 10000 | 100 to 500 |  |  |  | 
Cc1ccc(NC(=O)c2ccc(C(F)(F)F)nc2)cc1-c1ccnc(-c2ccnc(C(=O)NC3CC3)c2)c1 [Example 5] |  | 100 to 500 | 1000 to 10000 |  | 500 to 1000 | 100 to 500 |  |  |  | 
CNC(=O)c1cc(-c2cc(-c3cc(NC(=O)c4cccc(C(C)(C)C#N)c4)ccc3C)cc(OCCO)n2)ccn1 [reference compound] |  |  |  |  |  |  | 100 to 500 | < 100 | 500 to 1000 | < 100
CNC(=O)c1cc(-c2cc(N)cc(-c3cc(NC(=O)c4cc(C(F)(F)F)cnn4)ccc3C)c2)ccn1 [Example 51] |  | 500 to 1000 | 100 to 500 | 1000 to 10000 | 500 to 1000 | < 100 |  |  |  | 
CNC(=O)c1cc(-c2cc(-c3cc(NC(=O)c4cc(C#N)cnn4)ccc3C)cc(NCCO)n2)ccn1 [Example 53] |  | 100 to 500 | < 100 | 100 to 500 | 100 to 500 | < 100 |  |  |  | 
CNC(=O)c1cc(-c2cncc(-c3cc(NC(=O)c4ccc(C(F)(F)F)nc4)ccc3C)c2)ncn1 [Example 10] |  |  | 100 to 500 |  | 1000 to 10000 | 100 to 500 |  |  |  | 
CNC(=O)c1cc(-c2cc(-c3cc(NC(=O)c4cc(C(N)=O)cnn4)ccc3C)cc(OCCO)n2)ccn1 [Example 52, N^3-(3-(6-(2-hydroxyethoxy)-2′-(methylcarbamoyl)-[2,4′-bipyridin]-4-yl)-4-methylphenyl)pyridazine-3,5-dicarboxamide] |  | 1000 to 10000 | 100 to 500 | 1000 to 10000 | 1000 to 10000 | < 100 |  |  |  | 
